Test results as given in PMC3023147 (Protein & cell, 2010).

Biological target: T1, mTAT (mouse tyrosine aminotransferase) (Mus musculus, UniProt Q8QZR1)
T1 sequence (Q8QZR1 41-442): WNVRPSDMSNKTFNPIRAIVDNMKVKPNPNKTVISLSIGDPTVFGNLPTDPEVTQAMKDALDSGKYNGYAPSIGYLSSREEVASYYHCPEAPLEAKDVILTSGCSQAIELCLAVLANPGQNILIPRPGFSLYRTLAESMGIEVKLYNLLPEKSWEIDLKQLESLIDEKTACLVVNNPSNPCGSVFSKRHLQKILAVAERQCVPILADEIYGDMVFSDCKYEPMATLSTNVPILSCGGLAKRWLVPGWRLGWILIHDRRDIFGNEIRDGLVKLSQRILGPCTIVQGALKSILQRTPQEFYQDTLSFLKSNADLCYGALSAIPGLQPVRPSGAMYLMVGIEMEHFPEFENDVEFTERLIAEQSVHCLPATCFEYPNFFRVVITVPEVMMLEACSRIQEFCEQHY
Assay: X-ray crystal structure, […] Å
Assay type: binding
Conditions: covalent; internal Schiff base with Lys280; pH 6.8

## Cc1ncc(COP(=O)(O)O)c(C=O)c1O [PLP]
  X-ray crystal structure, 2.9 Å: Residual electron density clearly revealed the presence of covalently bound PLP in the active center
